The record followed here is article PMC3102704, “New Classes of Alanine Racemase Inhibitors Identified by High-Throughput Screening Show Antimicrobial Activity against Mycobacterium tuberculosis” (PLoS ONE, 2011).

Values after ≈ are worked out from the molar mass of the structure shown. Values joined by “and” are separate entries in the source; they are usually repeats but may differ in a detail not shown here. Equal values may be shown once. Read-outs that look alike come from different tables or passages of the source.

In general, MIC refers to the lowest concentration that inhibits growth of the organism. For orientation: IC50 means the concentration needed to halve the response being measured. A word on the Ki: it is the dissociation constant of the complex between target and ligand, obtained from inhibition or displacement. A higher Ki goes with a looser hold on the target.

In data set [1] the test system is M. tuberculosis H37Rv. Description: Antimicrobial susceptibility in BACTEC MGIT 960 system. In kind it is cell-based, Mycobacterium tuberculosis. The following applies: for Mtb: antimicrobial activity against M. tuberculosis / Mtb: antimicrobial activity against M. tuberculosis (supplement table): M. tuberculosis H37Rv, BACTEC, 50 and 100 µg/ml; for Growth inhibition of M. tuberculosis H37Rv in BACTEC culture tubes: final concentration of 50 and 100 µg/ml.

Data set [2] has as its system M. tuberculosis H37Rv. Description: Microbroth dilution MIC determination. In kind it is cell-based, Mycobacterium tuberculosis. The following applies: for MIC: M. tuberculosis H37Rv, microbroth dilution, 21 days, read-out: MIC against M. tuberculosis. (In general: Dilution methods test growth across graded concentrations, often in twofold steps.)
The subject of a further data set is HeLa cells. Description: Compound cytotoxicity, WST-1 Cell Proliferation Reagent. It is filed as cell-based. The following applies: for TC50, cytotoxicity in HeLa cells: 48 hours exposure, WST-1. As to the method: HeLa cells were grown to confluence overnight (37°C, 5% CO2) in Dulbecco's Modified Eagle Medium with 10% fetal bovine serum (Invitrogen, Carlsbad, CA). The following day, 3000 cells were plated into each well of a 96-well plate and grown overnight. Compounds were diluted in culture medium and added to the cells to yield final concentrations of 100, 50, 25, 12.5, and 6.25 µg/ml. The cells were exposed to the compounds for 48 hours, after which the effect on cells was determined using the WST-1 Cell Proliferation Reagent (Roche Applied Science, Indianapolis, IN) according to manufacturer's protocols. Absorbance at 450 nm was used to calculate percent cytotoxicity with respect to a DMSO solvent control. The results were fitted onto a sigmoidal dose-response curve using Prism software to calculate the TC50 (compound concentration that causes 50% cell death).
Background: Formazan colour is commonly taken as a measure of viable cells.

The target of data set [3] is T1, M. tuberculosis alanine racemase (Mycobacterium tuberculosis, UniProt P9WQA9). In kind it is binding. The following applies: 4 µM alanine racemase with 1 mM inhibitor. As to the method:
Electrospray ionization mass spectrometry (ESMS) was performed to detect direct interactions of inhibitors with enzyme. A mixture of 15 µl of sample (4 µM alanine racemase with 1 mM inhibitors) was diluted with 15 µl 2% acetonitrile/0.1% formic acid. Samples were then de-salted using C4 ZipTip, eluted into 15 µl 60% acetonitrile/0.1% formic acid, and directly injected into Qtof-micro MS instrument (Waters Corp., Milford, MA).

The target of data set [4] is T1, M. tuberculosis alanine racemase. The data set can be described thus: biochemical. The following applies: 30-minute pre-incubation with inhibitor, triplicate.
Data set [5] shares this target. Description: biochemical. In kind it is biochemical. The following applies: D-alanine 0.5-2.5 mM, inhibitor 0.01 to 0.98 mM.
The mark [6] stands for this setting: Mycobacterium tuberculosis, 504 h.

T1 sequence (P9WQA9 whole entry): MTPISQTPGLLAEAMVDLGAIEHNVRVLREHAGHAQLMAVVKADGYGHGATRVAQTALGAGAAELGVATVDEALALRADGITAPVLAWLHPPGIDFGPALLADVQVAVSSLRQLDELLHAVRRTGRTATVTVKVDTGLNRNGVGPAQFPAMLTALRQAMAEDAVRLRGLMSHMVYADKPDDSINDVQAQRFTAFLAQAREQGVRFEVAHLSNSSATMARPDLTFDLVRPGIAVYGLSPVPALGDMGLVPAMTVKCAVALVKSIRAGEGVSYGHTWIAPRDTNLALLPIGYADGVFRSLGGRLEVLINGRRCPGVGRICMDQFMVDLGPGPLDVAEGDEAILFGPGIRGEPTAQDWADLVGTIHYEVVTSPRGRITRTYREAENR

For `N[C@@H]1CONC1=O` [CS, (4R)-4-amino-3-isoxazolidinone, reference compound], in the data set with M. tuberculosis H37Rv [1], the “Mtb: antimicrobial activity against M. tuberculosis” value is given as “+” and the “Mtb: antimicrobial activity against M. tuberculosis (supplement table)” value (“Mtb: antimicrobial activity … (supplement table)” for short) is on record as “+”. Further, the “Increase in the MIC in the presence of D-alanine” value in the data set on M. tuberculosis H37Rv [2] (5 mM D-alanine in the growth medium, data not shown) amounted to 3 fold. Further, the MIC in the data set on M. tuberculosis H37Rv [2] (setting [6]) was 6.5 µg/mL and 65 µM. Further, in the data set with HeLa cells, the “TC50, cytotoxicity in HeLa cells” value amounted to 203 µM. In data set [3], the “Nature of inhibitor-enzyme interaction by ESMS” value is “irreversible modification of the enzyme”.
`COc1ccc(CC(=S)N2CCOCC2)cc1` [L2-09, 2-(4-methoxyphenyl)-1-morpholin-4-ylethanethione] yielded an IC50 in data set [4] of 3.3 µM. Further, in the data set on M. tuberculosis H37Rv [1], the “Mtb: antimicrobial activity against M. tuberculosis” value is listed as “−” and the “Mtb: antimicrobial activity … (supplement table)” value is listed as “-”.
The compound `S=C(Cc1ccccc1)N1CCCCC1` [L2-12, 2-phenyl-1-piperidin-1-ylethanethione] gave an IC50 in data set [4] of 6 µM. Also, in the data set with M. tuberculosis H37Rv [1], the “Mtb: antimicrobial activity against M. tuberculosis” value is “+”, the “Mtb: antimicrobial activity … (supplement table)” value is on record as “+” and the “Growth inhibition of M. tuberculosis H37Rv in BACTEC culture tubes” value (“Growth inhibition” for short) is “inhibited growth at both concentrations”. Also, in the data set on M. tuberculosis H37Rv [2] (setting [6]), the MIC was 28.6 µM (≈ 6.27 µg/mL). In addition, the “TC50, cytotoxicity in HeLa cells” value in the data set on HeLa cells is reported as 406 µM. For the same compound, in data set [5], the Ki came to 80 µM. Also, the “Nature of inhibitor-enzyme interaction by ESMS” value in data set [3] is “irreversible”.
On to `CCOC(=O)CCSc1ccccn1` [L2-04, ethyl 3-(pyridin-2-ylthio)propanoate], for which the IC50 in data set [4] was determined as 2.6 µM. Moreover, in the data set with M. tuberculosis H37Rv [1], the “Mtb: antimicrobial activity against M. tuberculosis” value is recorded as “+”, the “Mtb: antimicrobial activity … (supplement table)” value is listed as “+” and the “Growth inhibition” value is “inhibited growth at both concentrations”. Also, in the data set on M. tuberculosis H37Rv [2] (setting [6]), the MIC stood at 59 µM (≈ 12.5 µg/mL). For the same compound, the “TC50, cytotoxicity in HeLa cells” value in the data set on HeLa cells is 229.8 µM. The same compound gave a Ki in data set [5] of 38 µM. The “Nature of inhibitor-enzyme interaction by ESMS” value in data set [3] was “reversible”.
As to `O=C(O)CSC(=S)Nc1cccnc1` [L2-11, 2-(pyridin-3-ylcarbamothioylsulfanyl)acetic acid], in data set [4], it took 13.1 µM to reach half-maximal inhibition (IC50). Besides, in the data set on M. tuberculosis H37Rv [1], the “Mtb: antimicrobial activity against M. tuberculosis” value was “−” and the “Mtb: antimicrobial activity … (supplement table)” value was “-”.
For `CN(C)NS(=O)(=O)c1ccc2c(c1)Cc1cc(S(=O)(=O)NN(C)C)ccc1-2` [L2-02, 2-N′,2-N′,7-N′,7-N′-tetramethyl-9H-fluorene-2,7-disulfonohydrazide], in that order: 1.6 µM, “−” and “-”.
In the case of `COC(=O)c1cccc(C(=O)Oc2ccc(OC(=O)c3cccc(C(=O)OC)n3)c(Cl)c2)n1` [L2-10, 6-O-[3-chloro-4-(6-methoxycarbonylpyridine-2-carbonyl)oxyphenyl]2-O-methyl pyridine-2,6-dicarboxylate], inhibition in data set [4] was half-maximal at 1 µM (IC50). Moreover, in the data set with M. tuberculosis H37Rv [1], the “Mtb: antimicrobial activity against M. tuberculosis” value was “+”, the “Mtb: antimicrobial activity … (supplement table)” value is given as “+” and the “Growth inhibition” value is on record as “inhibited growth at both concentrations”. In addition, in the data set on M. tuberculosis H37Rv [2], the MIC was 13.6 µM (≈ 6.4 µg/mL). In the data set on HeLa cells, the “TC50, cytotoxicity in HeLa cells” value worked out at 157.2 µM. Further, affinity in data set [5] was put at a Ki of 680 µM. For the same compound, in data set [3], the “Nature of inhibitor-enzyme interaction by ESMS” value was “not definitive”.
In data set [4], `Cc1ccc(CC(=S)N2CCOCC2)cc1` [L2-07, 2-(4-methylphenyl)-1-morpholin-4-ylethanethione] yielded an IC50 of 6.5 µM. Further, in the data set on M. tuberculosis H37Rv [1], the “Mtb: antimicrobial activity against M. tuberculosis” value is listed as “−” and the “Mtb: antimicrobial activity … (supplement table)” value was “-”.
For `O=C(c1cccs1)c1no[n+]([O-])c1C(=O)c1cccs1` [L2-18, 1,1′-(2-oxido-1,2,5-oxadiazole-3,4-diyl)-bis (1-(2-thienyl))-methanone], in that order: 4.9 µM, “−” and “-”.
With `O=C1Nc2ccccc2C(=O)C1(O)O` [L2-16, 3,3-dihydroxy-1H-quinoline-2,4-dione], the IC50 in data set [4] came out at 5.2 µM. For the same compound, in the data set with M. tuberculosis H37Rv [1], the “Mtb: antimicrobial activity against M. tuberculosis” value is listed as “+”, the “Mtb: antimicrobial activity … (supplement table)” value is given as “+” and the “Growth inhibition” value is reported as “inhibited growth at both concentrations”. Also, the MIC in the data set with M. tuberculosis H37Rv [2] (setting [6]) was 32.4 µM (≈ 6.26 µg/mL). Further, in the data set on HeLa cells, the “TC50, cytotoxicity in HeLa cells” value amounted to 33.7 µM. Moreover, the “Cytotoxicity relative to MIC” value in the data set with HeLa cells (compared with MIC against M. tuberculosis) is recorded as “cytotoxic at slightly above its MIC”. The same compound returned a Ki in data set [5] of 20 µM. Moreover, the “Nature of inhibitor-enzyme interaction by ESMS” value in data set [3] is listed as “reversible”.
Regarding `CCOc1ccc(CCNC(=O)Cn2sc3nc(C)cc(C)c3c2=O)cc1` [L2-13, 2-(4,6-dimethyl-3-oxo-[1], [2]thiazolo[5,4-b]pyridin-2-yl)-N-[2-(4-ethoxyphenyl)ethyl]acetamide], the IC50 in data set [4] turned out to be 7.7 µM. Also, in the data set with M. tuberculosis H37Rv [1], the “Mtb: antimicrobial activity against M. tuberculosis” value was “+”, the “Mtb: antimicrobial activity … (supplement table)” value is given as “+” and the “Growth inhibition” value is recorded as “inhibited growth at both concentrations”. Also, the MIC with M. tuberculosis H37Rv [2] was 16.2 µM (≈ 6.24 µg/mL). The “TC50, cytotoxicity in HeLa cells” value with HeLa cells came to 36.4 µM. In addition, in data set [5], the Ki came to 930 µM. Also, the “Nature of inhibitor-enzyme interaction by ESMS” value in data set [3] was “irreversible”.
As to `CNC(=O)COc1ccccc1O` [L2-15, 2-(2-hydroxyphenoxy)-N-methylacetamide], the IC50 in data set [4] was 5.7 µM. In addition, in the data set on M. tuberculosis H37Rv [1], the “Mtb: antimicrobial activity against M. tuberculosis” value is reported as “−” and the “Mtb: antimicrobial activity … (supplement table)” value is “-”.
The compound “2-(hydoxyimino)-6-methyl-2H-benzopyran-3-carboxamide [L2-14]” displayed a half-inhibitory concentration (IC50) in data set [4] of 2.8 µM. Moreover, in the data set on M. tuberculosis H37Rv [1], the “Mtb: antimicrobial activity against M. tuberculosis” value was “−” and the “Mtb: antimicrobial activity … (supplement table)” value was “-”.
The compound `COc1ccc(NC(=O)c2nc(S(C)(=O)=O)ncc2Cl)cc1Cl` [L2-06, 5-chloro-N-(3-chloro-4-methoxyphenyl)2(methylsulfonyl)pyrimidine-4carboxamide] came in with an IC50 in data set [4] of 8.2 µM. Besides, in the data set with M. tuberculosis H37Rv [1], the “Mtb: antimicrobial activity against M. tuberculosis” value is “+”, the “Mtb: antimicrobial activity … (supplement table)” value was “+” and the “Growth inhibition” value is on record as “inhibited growth at both concentrations”. In addition, in the data set with M. tuberculosis H37Rv [2] (setting [6]), the MIC was less than 4.5 µM. In addition, the “TC50, cytotoxicity in HeLa cells” value with HeLa cells was 18.8 µM. In addition, the affinity in data set [5], expressed as Ki, was 760 µM. For the same compound, in data set [3], the “Nature of inhibitor-enzyme interaction by ESMS” value is listed as “irreversible”.
For `O=C(COc1ccccc1O)NO` [L2-03, N-hydroxy-2-(2-hydroxyphenoxy)acetamide], the IC50 in data set [4] turned out to be 8.2 µM. In the data set with M. tuberculosis H37Rv [1], the “Mtb: antimicrobial activity against M. tuberculosis” value is reported as “−” and the “Mtb: antimicrobial activity … (supplement table)” value was “-”.
Regarding `CS(=O)(=O)c1ncc(Cl)c(C(=O)NCc2ccccc2)n1` [L2-05, N-benzyl-5-chloro-2-methylsulfonylpyrimidine-4-carboxamide], in data set [4], the IC50 came out at 6.8 µM. In the data set with M. tuberculosis H37Rv [1], the “Mtb: antimicrobial activity against M. tuberculosis” value is given as “+”, the “Mtb: antimicrobial activity … (supplement table)” value is recorded as “+” and the “Growth inhibition” value is “inhibited growth at both concentrations”. For the same compound, the minimum inhibitory concentration (MIC) in the data set with M. tuberculosis H37Rv [2] (setting [6]) is 9 µM (≈ 2.93 µg/mL). Moreover, the “TC50, cytotoxicity in HeLa cells” value in the data set with HeLa cells stood at 20 µM. Moreover, the inhibition constant (Ki) in data set [5] came out at 630 µM. For the same compound, the “Nature of inhibitor-enzyme interaction by ESMS” value in data set [3] is listed as “irreversible”.
Consider `Cc1ccc(S(=O)(=O)NN(C)C)cc1` [L2-01, N′,N′,4-trimethylbenzenesulfonohydrazide], for which the IC50 in data set [4] turned out to be 9 µM. In the data set on M. tuberculosis H37Rv [1], the “Mtb: antimicrobial activity against M. tuberculosis” value is reported as “−” and the “Mtb: antimicrobial activity … (supplement table)” value is reported as “-”.
